Assay results reported in patent publication US9908897B2, “Spirocyclic derivatives” (CHRONOS THERAPEUTICS LIMITED, priority 2014, dated 2018).

Assays:
[1] = target: human dopamine transporter (DAT) (Homo sapiens (Human), UniProt Q01959); test: Scintillation Proximity Assay (SPA) competition binding, human DAT; details: recombinant hDAT-CHO membranes, [3H]WIN-35,428
Description: (§1) Measure of Affinity to the Human Transporters DAT, NET and SERT
In the context of the present invention pKi values (corresponding to the antilogarithm of Ki) are used instead of Ki; pKi are only estimated to be accurate to about 0.3 log unit.
(§2) Scintillation Proximity Assay (SPA) for Human DAT, NET and SERT Binding
(§3) Chinese Hamster Ovary (CHO) cells stably expressing either human DAT (hDAT-CHO) or human NET (hNET-CHO) or human SERT (hSERT-CHO) are used for the membrane preparations for radioligand binding assays using Scintillation proximity Assay (SPA) technique. Each cell line is cultured independently in F-12K Nutrient Mixture containing 10% of Fetal Bovine Serum (FBS) supplemented with 450 μg/ml G-418. When cells are at 70-80% of confluence 3 mM Na Butyrate was added to the cell culture medium. After 24 h of incubation, the culture medium was removed and the cells detached with Versene (DAT) or by scraping (NET and SERT). Cell suspension is centrifuged at 41,000 g for 10 minutes at 4° C. The resultant pellets are re-suspended in 15 volumes of Ice-cold buffer (20 mM HEPES, 145 mM NaCl, 5 mM KCl, pH7.3), homogenized using an Ultra Turrax homogeniser and centrifuged as before. The resultant membrane pellets are re-suspended in up to 15 volume of ice-cold buffer, incubated for 20 minutes at 37-C and centrifuged as before at 41,000 g. The final membrane pellets are re-suspended into 5-10 volumes of ice-cold buffer, dispensed into 0.5 ml aliquots and stored at −80° C. until use. Protein concentration for each preparation is determined using Bio-Rad Protein Assay kit.
(§4) The affinity of the compounds of the invention to the human DAT or NET or SERT transporters is assessed by using the [^3H]WIN-35,428 or [^3H]nisoxetine or [^3H]citalopram binding assays in recombinant human DAT, NET and SERT membranes with the SPA technology. The final assay volume is 50 μL in 384 well plates.
(§5) Briefly, 0.5 μL of test compound in neat DMSO or 0.5 μL of DMSO for total binding (TB) or 0.5 μL of indatraline 1 mM (10 μM final concentration) for non specific binding (NSB) are added to the assay plate. 50 μL of the SPA mixture is added to each well, containing: 30 μg/mL or 10 μg/mL or 25 μg/mL DAT, NET, SERT membranes, respectively; 5 nM [^3H]WIN-35,428 or 5 nM [^3H]nisoxetine or 1 nM [^3H]citalopram, for DAT, NET, SERT assay, respectively; 2.5 mg/mL or 1 mg/mL or 4 mg/mL WGA-PVT SPA beads (PerkinElmer RPNQ0001, for DAT, NET, SERT assay, respectively. All components are added to Assay Buffer (20 mM HEPES pH 7.4, 145 mM NaCl, 5 mM KCl, 0.01% Pluronic F-127). 0.02% BSA was used for DAT binding only. Plates are sealed with Topseal A and centrifuged 1 min, 800 rpm. Plates are loaded into a 1450 Microbeta TriLux (Perkin-Elmer) plate reader and the radioactivity counted after at least 4 hrs or overnight incubation at room temperature. Curve fitting and IC50 estimations are performed using a four parameter model in XLfit (IDBS, Guilford, UK) for Microdoft Excel (Microsoft, Redmond, Wash.).

[2] = target: human norepinephrine transporter (NET) (Homo sapiens (Human), UniProt P23975); test: Scintillation Proximity Assay (SPA) competition binding, human NET; details: recombinant hNET-CHO membranes, [3H]nisoxetine
Description: as §1
(§6) Affinity is expressed in terms of inhibition constant (Ki) of the compounds of the invention for DAT, NET and SERT, and it is typically calculated from the IC50 values obtained in competition experiments using Cheng and Prusoff equation (Cheng and Prusoff, Biochem. Pharmacol. 22:3099, 1973). In the context of the present invention pKi values (corresponding to the antilogarithm of Ki) are used instead of Ki; pKi are only estimated to be accurate to about 0.3 log unit.
as §2, §3, §4, §5

[3] = target: human serotonin transporter (SERT) (Homo sapiens (Human), UniProt P31645); test: Scintillation Proximity Assay (SPA) competition binding, human SERT; details: recombinant hSERT-CHO membranes, [3H]citalopram
Description: as §1, §6, §2, §3, §4, §5

human serotonin transporter (SERT), sequence (P31645 whole entry): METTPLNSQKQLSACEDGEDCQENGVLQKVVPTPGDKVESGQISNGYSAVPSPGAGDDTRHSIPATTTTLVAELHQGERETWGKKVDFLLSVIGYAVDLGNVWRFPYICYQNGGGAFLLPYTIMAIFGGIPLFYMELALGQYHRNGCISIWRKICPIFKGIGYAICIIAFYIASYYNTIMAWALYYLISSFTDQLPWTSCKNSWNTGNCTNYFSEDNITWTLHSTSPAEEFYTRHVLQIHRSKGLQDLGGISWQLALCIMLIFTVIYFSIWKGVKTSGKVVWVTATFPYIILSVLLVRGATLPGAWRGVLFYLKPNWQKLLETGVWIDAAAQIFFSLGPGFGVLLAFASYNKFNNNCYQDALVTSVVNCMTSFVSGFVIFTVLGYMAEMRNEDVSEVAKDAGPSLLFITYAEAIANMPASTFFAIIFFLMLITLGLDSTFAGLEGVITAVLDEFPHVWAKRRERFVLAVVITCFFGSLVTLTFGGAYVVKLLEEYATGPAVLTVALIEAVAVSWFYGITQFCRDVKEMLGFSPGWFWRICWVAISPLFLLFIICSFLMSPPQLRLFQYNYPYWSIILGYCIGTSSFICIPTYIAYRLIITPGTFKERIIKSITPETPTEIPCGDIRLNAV
human dopamine transporter (DAT), sequence (Q01959 whole entry): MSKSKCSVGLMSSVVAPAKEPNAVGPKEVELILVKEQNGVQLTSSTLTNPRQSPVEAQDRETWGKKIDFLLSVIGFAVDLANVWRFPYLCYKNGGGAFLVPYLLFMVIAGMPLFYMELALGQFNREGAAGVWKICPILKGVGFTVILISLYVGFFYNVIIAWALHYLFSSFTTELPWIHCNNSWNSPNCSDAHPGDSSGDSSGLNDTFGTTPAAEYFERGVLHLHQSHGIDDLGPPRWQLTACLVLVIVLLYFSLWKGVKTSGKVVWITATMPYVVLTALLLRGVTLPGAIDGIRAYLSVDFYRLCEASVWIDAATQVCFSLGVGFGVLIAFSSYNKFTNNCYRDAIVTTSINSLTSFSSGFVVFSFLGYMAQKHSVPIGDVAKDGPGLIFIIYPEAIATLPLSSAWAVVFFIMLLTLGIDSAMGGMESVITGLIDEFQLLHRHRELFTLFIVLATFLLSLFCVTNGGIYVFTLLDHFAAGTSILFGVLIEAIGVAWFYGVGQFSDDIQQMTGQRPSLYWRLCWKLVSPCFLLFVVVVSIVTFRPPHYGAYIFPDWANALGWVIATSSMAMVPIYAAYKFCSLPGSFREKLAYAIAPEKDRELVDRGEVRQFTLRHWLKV
human norepinephrine transporter (NET), sequence (P23975 whole entry): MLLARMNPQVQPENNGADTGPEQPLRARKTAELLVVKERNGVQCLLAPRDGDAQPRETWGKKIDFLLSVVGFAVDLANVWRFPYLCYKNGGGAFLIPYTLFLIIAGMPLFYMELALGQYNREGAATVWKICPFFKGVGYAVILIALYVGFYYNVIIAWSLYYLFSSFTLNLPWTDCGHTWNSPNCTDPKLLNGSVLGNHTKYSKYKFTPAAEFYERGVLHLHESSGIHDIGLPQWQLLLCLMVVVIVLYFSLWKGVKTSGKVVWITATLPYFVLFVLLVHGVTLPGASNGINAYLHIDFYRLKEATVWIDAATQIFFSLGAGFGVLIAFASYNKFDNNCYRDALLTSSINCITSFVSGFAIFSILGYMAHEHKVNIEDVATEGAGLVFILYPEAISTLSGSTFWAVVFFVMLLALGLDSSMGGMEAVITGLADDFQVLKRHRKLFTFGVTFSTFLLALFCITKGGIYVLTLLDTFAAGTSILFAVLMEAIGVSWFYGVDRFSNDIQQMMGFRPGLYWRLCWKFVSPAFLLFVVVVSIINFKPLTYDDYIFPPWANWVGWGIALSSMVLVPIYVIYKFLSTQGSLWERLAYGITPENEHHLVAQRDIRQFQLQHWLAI

| Structure (SMILES) | pIC50 DAT [1] | pIC50 NET [2] | pIC50 SERT [3] | IC50 [3] [µM] | IC50 [2] [µM] |
| --- | --- | --- | --- | --- | --- |
| Fc1cccc(Oc2cc(F)c(F)cc2N2CCCC3(CCNCC3)C2)c1 [Example 80, 2-[4,5-difluoro-2-(3-fluorophenoxy)phenyl]-2,9-diazaspiro[5.5]undecane] | 6.64 | 5.84 | 6.49 |  |  |
| CN1CCCNC(=O)C12CCN(c1nc(Oc3cccc(F)c3)cc(C(F)(F)F)n1)CC2 [Example 76, 3-[4-(3-fluorophenoxy)-6-(trifluoromethyl)pyrimidin-2-yl]-7-methyl-3,7,11-triazaspiro[5.6]dodecan-12-one] | 7.28 | 4.88 |  | > 100 |  |
| Cl.N#Cc1c(C(F)(F)F)cc(N2CCC3(CC2)CNCCO3)nc1Oc1cccc(F)c1 [Example 39, 2-(3-fluorophenoxy)-6-{1-oxa-4,9-diazaspiro[5.5]undecan-9-yl}-4-(trifluoromethyl)pyridine-3-carbonitrile hydrochloride] | 6.68 | 5.78 | 4.50 |  |  |
| Cl.FC(F)(F)c1cc(Oc2cccs2)nc(N2CCC3(CC2)CNCCO3)n1 [Example 60, 9-[4-(thiophen-2-yloxy)-6-(trifluoromethyl)pyrimidin-2-yl]-1-oxa-4,9-diazaspiro[5.5]undecane hydrochloride] | 7.34 | 5.75 | 5.83 |  |  |
| Cl.O=C1CCNCC12CCN(c1nc(Oc3cccc(F)c3)cc(C(F)(F)F)n1)C2 (stereo not drawn) [Example 88, 2-[4-(3-fluorophenoxy)-6-(trifluoromethyl)pyrimidin-2-yl]-2,7-diazaspiro[4.5]decan-10-one hydrochloride] | 8.15 | 6.55 | 4.48 |  |  |
| Cl.Fc1cccc(Oc2cc(F)cc(N3CCC4(CC3)CNCCO4)c2)c1 [Example 9, 9-[3-fluoro-5-(3-fluorophenoxy)phenyl]-1-oxa-4,9-diazaspiro[5.5]undecane hydrochloride] | 8.38 | 6.91 | 7.00 |  |  |
| Cc1cc(Oc2cc(F)cc(F)c2)nc(N2CCC3(CC2)CNCCO3)n1.Cl [Example 50, 9-[4-(3,5-difluorophenoxy)-6-methylpyrimidin-2-yl]-1-oxa-4,9-diazaspiro[5.5]undecane hydrochloride] | 8.24 | 6.96 | 5.11 |  |  |
| CSc1cc(N2CCC3(CC2)CNCCO3)nc(Oc2cccc(F)c2)n1.Cl [Example 64, 9-[2-(3-fluorophenoxy)-6-(methylsulfanyl)pyrimidin-4-yl]-1-oxa-4,9-diazaspiro[5.5]undecane hydrochloride] | 6.38 | 5.35 | 4.86 |  |  |
| CSc1cc(Oc2cccc(F)c2)nc(N2CCC3(CC2)CNCCO3)n1.Cl [Example 63, 9-[4-(3-fluorophenoxy)-6-(methylsulfanyl)pyrimidin-2-yl]-1-oxa-4,9-diazaspiro[5.5]undecane hydrochloride] | 8.07 | 6.34 | 5.15 |  |  |
| Fc1cccc(Oc2cc(F)c(F)cc2N2CCCC3(CCCNC3)C2)c1 (stereo not drawn) [Example 81, 2-[4,5-difluoro-2-(3-fluorophenoxy)phenyl]-2,8-diazaspiro[5.5]undecane] | 7.18 | 6.25 | 6.71 |  |  |
| O=C1CCNCC12CCN(c1cc(F)c(F)cc1Oc1cccc(F)c1)C2 (stereo not drawn) [Example 86, 2-[4,5-difluoro-2-(3-fluorophenoxy)phenyl]-2,7-diazaspiro[4.5]decan-10-one] | 6.87 | 5.81 | 5.65 |  |  |
| O[C@H]1CNCC[C@@]12CCN(c1nc(Oc3cccc(F)c3)cc(C(F)(F)F)n1)C2 (single isomer, unassigned) [Example 100, 2-[4-(3-fluorophenoxy)-6-(trifluoromethyl)pyrimidin-2-yl]-2,8-diazaspiro[4.5]decan-6-ol] |  |  |  | 6.92 | 0.398 |
| Cl.Fc1cccc(Oc2cccc(N3CCC4(CC3)CNCCO4)n2)c1 [Example 36, 9-[6-(3-fluorophenoxy)pyridin-2-yl]-1-oxa-4,9-diazaspiro[5.5]undecane hydrochloride] | 7.37 | 5.73 | 5.66 |  |  |
| O[C@H]1CNCC[C@@]12CCN(c1nc(Oc3cccc(F)c3)cc(C(F)(F)F)n1)C2 (single isomer, unassigned) [Example 98, 2-[4-(3-fluorophenoxy)-6-(trifluoromethyl)pyrimidin-2-yl]-2,8-diazaspiro[4.5]decan-6-ol] |  |  |  | 11.2 | 0.437 |
| CN1CCCNCC12CCN(c1nc(Oc3cccc(F)c3)cc(C(F)(F)F)n1)CC2 [Example 77, 3-[4-(3-fluorophenoxy)-6-(trifluoromethyl)pyrimidin-2-yl]-7-methyl-3,7,11-triazaspiro[5.6]dodecane] | 8.08 | 6.33 | 5.30 |  |  |
| Cc1cnc(N2CCC3(CC2)CNCCO3)nc1Oc1cccc(F)c1.Cl [Example 54, 9-[4-(3-fluorophenoxy)-5-methylpyrimidin-2-yl]-1-oxa-4,9-diazaspiro[5.5]undecane hydrochloride] | 6.96 | 5.34 | 5.00 |  |  |
| O[C@H]1CNCC[C@@]12CCN(c1nc(Oc3cccc(F)c3)cc(C(F)(F)F)n1)C2 (single isomer, unassigned) [Example 101, 2-[4-(3-fluorophenoxy)-6-(trifluoromethyl)pyrimidin-2-yl]-2,8-diazaspiro[4.5]decan-6-ol] |  |  |  | 11.2 | 0.263 |
| OC1CNCCC12CCN(c1nc(Oc3cccc(F)c3)cc(C(F)(F)F)n1)C2 (stereo not drawn) [Example 96, 2-[4-(3-fluorophenoxy)-6-(trifluoromethyl)pyrimidin-2-yl]-2,8-diazaspiro[4.5]decan-6-ol] |  | 6.62 | 5.25 |  |  |
| O[C@H]1CNCC[C@@]12CCN(c1nc(Oc3cccc(F)c3)cc(C(F)(F)F)n1)C2 (single isomer, unassigned) [Example 99, 2-[4-(3-fluorophenoxy)-6-(trifluoromethyl)pyrimidin-2-yl]-2,8-diazaspiro[4.5]decan-6-ol] |  |  |  | 11.2 | 0.245 |
| OC1CNCCC12CCN(c1nc(Oc3cccc(F)c3)cc(C(F)(F)F)n1)C2 (stereo not drawn) [Example 97, 2-[4-(3-fluorophenoxy)-6-(trifluoromethyl)pyrimidin-2-yl]-2,8-diazaspiro[4.5]decan-6-ol] |  | 6.62 | 5.34 |  |  |
